The values below are quoted from earlier work in patent publication US7666858B2, “Pharmaceutical composition for treatment of phimosis using topical corticosteroid” (Apsen Farmaceutica S.A., priority 2000, dated 2010).

The conditions of data set [1]: Lindhagen 1996.

On to `C[C@H]1C[C@H]2[C@@H]3CCC4=CC(=O)C=C[C@]4(C)[C@@]3(F)[C@@H](O)C[C@]2(C)[C@@]1(O)C(=O)CO` [Betamethasone], for which, under “alcohol”, the solubility in alcohol result is on record as “partially alcohol-soluble”. For the same molecule, the solubility in water entry (water) was “water-insoluble”.

Consider `CCC(=O)O[C@]1(C(=O)CCl)[C@@H](C)C[C@H]2[C@@H]3CCC4=CC(=O)C=C[C@]4(C)[C@@]3(F)[C@@H](O)C[C@@]21C` [clobetasol propionate], for which the success in data set [1] is recorded as 70%.
